The results in this text go back to patent US4045563A, “Substituted 2-[pyridylalkylenesulfinyl]-benzimidazoles with gastric acid secretion inhibiting effects” (AB Hassle, priority 1975, dated 1977).

The test system of this assay is gastric acid secretion. Description: Inhibition of pentagastrin-induced gastric acid secretion in anesthetized dogs (modified perfusion technique, intraduodenal test compound). It counts as in vivo. The following applies: dog, pentagastrin-stimulated. As for the experimental part: To test the gastric acid secretion activity, a modified perfusion technique was performed using dogs as test animals. An anesthetized dog was fitted with one tube going through the esophagus to the stomach for instillation of fluid, and a second tube extending through the duodenum by way of the ligated pylorus for fluid drainage. Every 15 minutes, 5 ml/kg body weight of a saline solution was introduced into the test animal, and drained samples collected and titrated to pH 7.0 with 0.04N NaOH using a radiometer automatic titrator to calculate the acid output.
Gastric acid secretion was induced by pentagastrin by administering 1-2 μg/kg per hour, giving a submaximal secretory response. Test compounds in a 0.5% Methocel (methyl cellulose) suspension were introduced into the duodenum close to the ligation at least two hours following onset of stimulation, when the secretion had reached a steady level for three consecutive 15 minute periods.
The following gastric acid inhibiting effect data were obtained for a number of compounds tested according to the method described.

Bounds are passed on as bounds.

With `[O-][S+](Cc1ccccn1)c1nc2ccccc2[nH]1` (stereo not shown) [Example 1, 2-[2-pyridylmethylsulfinyl]-benzimidazole], for the setting “1 mg per kg body weight”, the “inhibited gastric acid secretion” value was determined as 90%. As a reminder, the inhibition in vivo is the change of the read-out against control, counted positive when it falls. Higher therefore signals strong suppression. `Cc1cc(C)c2nc([S+]([O-])Cc3ccccn3)[nH]c2c1` (stereo not shown) [Example 2] yielded an inhibition in vivo at 5 mg/kg (Canis lupus familiaris) of 94%.

Regarding `CCc1ccc2[nH]c([S+]([O-])Cc3ccccn3)nc2c1` (stereo not shown) [Example 3], 5 mg/kg produced 50% inhibition in vivo (Canis lupus familiaris).

`Cc1cc(Cl)cc2[nH]c([S+]([O-])Cc3ccccn3)nc12` (stereo not shown) [Example 4]: at 10 mg/kg the inhibition in vivo (Canis lupus familiaris) was 41%. Turning to `CCOC(=O)c1ccc2[nH]c([S+]([O-])Cc3ccccn3)nc2c1` (stereo not shown) [Example 9], where the note is “Canis lupus familiaris”, at 5 mg/kg the inhibition in vivo was 8%. Under “Canis lupus familiaris”, `CC(c1ccccn1)[S+]([O-])c1nc2ccccc2[nH]1` (stereo not shown) [Example 16] displayed an inhibition in vivo at 1 mg/kg of 37% and an inhibition in vivo at 5 mg/kg of 96%.

Under “Canis lupus familiaris”, `Cc1ccc2[nH]c([S+]([O-])Cc3ccccn3)nc2c1` (stereo not shown) [Example 21] gave an inhibition in vivo at 1 mg/kg of 50% and an inhibition in vivo at 5 mg/kg of 95%. For `[O-][S+](Cc1ccccn1)c1nc2cc(Cl)ccc2[nH]1` (stereo not shown) [Example 22], the inhibition in vivo at 5 mg/kg (Canis lupus familiaris) was determined as 35%. Compound `CC(C)c1ccc2[nH]c([S+]([O-])Cc3ccccn3)nc2c1` (stereo not shown) [Example 23] displayed an inhibition in vivo at 10 mg/kg (Canis lupus familiaris) of 80%. With `CCCc1ccc2[nH]c([S+]([O-])Cc3ccccn3)nc2c1` (stereo not shown) [Example 25], the inhibition in vivo at 5 mg/kg (Canis lupus familiaris) is 15%. On the same count and under the same terms, the same measure for `Cc1ccc(C[S+]([O-])c2nc3cc(C)ccc3[nH]2)nc1` (stereo not shown) [Example 26]: above 75%. Turning to `CCC(c1ccccn1)[S+]([O-])c1nc2ccccc2[nH]1` (stereo not shown) [Example 28], the inhibition in vivo at 2 mg/kg (Canis lupus familiaris, dose 2 mg/kg) amounted to 65%. The compound further showed an inhibition in vivo at 5 mg/kg (Canis lupus familiaris) of 80%. Under “Canis lupus familiaris”, `CCc1ccc2[nH]c([S+]([O-])C(C)c3ccccn3)nc2c1` (stereo not shown) [Example 30] gave an inhibition in vivo at 5 mg/kg of 60%. For the compound `Cc1ccnc(C[S+]([O-])c2nc3cc(C)ccc3[nH]2)c1` (stereo not shown) [Example 42], the inhibition in vivo at 5 mg/kg (Canis lupus familiaris) is above 75%. For `Cc1cccnc1C[S+]([O-])c1nc2ccccc2[nH]1` (stereo not shown) [Example 43], the inhibition in vivo at 5 mg/kg (Canis lupus familiaris) is above 75%. On the same count and under the same terms, to `CCc1ccc(C[S+]([O-])c2nc3cc(C)ccc3[nH]2)nc1` (stereo not shown) [Example 44] belongs 95%; to `CCc1ccc(C[S+]([O-])c2nc3ccccc3[nH]2)nc1` (stereo not shown) [Example 45], 90%; to `[O-][S+](Cc1ccccn1)c1nc2c(Cl)cccc2[nH]1` (stereo not shown) [Example 53], 30%.

For the setting “Canis lupus familiaris”, `Cc1cc2nc([S+]([O-])C(C)c3ccccn3)[nH]c2cc1C` (stereo not shown) [Example 55] had an inhibition in vivo at 5 mg/kg of 30%.
